Laboratory results taken from patent US20240294531A1, “COVALENT HETEROCYCLES AND USES THEREOF” (Kumquat Biosciences Inc., priority 2022, published 2024).

Columns and labels:
Type in all cases: binding
[1] = molecular target: T1, BTK wildtype protein (Homo sapiens (Human), UniProt Q06187); test: BTK wildtype HTRF displacement assay; settings: 1-hour incubation; read-out: BTK (wt) IC50
In short: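 Tracer-displacement HTRF format: compound and tracer 239 compete at the BTK active site, detected via anti-GST-Tb on GST-tagged full-length enzyme. One-hour room-temperature incubation; compounds dosed at six four-fold steps down from 5 μM. Percent inhibition versus DMSO gives IC50 by constrained four-parameter logistic fit.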
Target sequence in this assay (Q06187 2-659): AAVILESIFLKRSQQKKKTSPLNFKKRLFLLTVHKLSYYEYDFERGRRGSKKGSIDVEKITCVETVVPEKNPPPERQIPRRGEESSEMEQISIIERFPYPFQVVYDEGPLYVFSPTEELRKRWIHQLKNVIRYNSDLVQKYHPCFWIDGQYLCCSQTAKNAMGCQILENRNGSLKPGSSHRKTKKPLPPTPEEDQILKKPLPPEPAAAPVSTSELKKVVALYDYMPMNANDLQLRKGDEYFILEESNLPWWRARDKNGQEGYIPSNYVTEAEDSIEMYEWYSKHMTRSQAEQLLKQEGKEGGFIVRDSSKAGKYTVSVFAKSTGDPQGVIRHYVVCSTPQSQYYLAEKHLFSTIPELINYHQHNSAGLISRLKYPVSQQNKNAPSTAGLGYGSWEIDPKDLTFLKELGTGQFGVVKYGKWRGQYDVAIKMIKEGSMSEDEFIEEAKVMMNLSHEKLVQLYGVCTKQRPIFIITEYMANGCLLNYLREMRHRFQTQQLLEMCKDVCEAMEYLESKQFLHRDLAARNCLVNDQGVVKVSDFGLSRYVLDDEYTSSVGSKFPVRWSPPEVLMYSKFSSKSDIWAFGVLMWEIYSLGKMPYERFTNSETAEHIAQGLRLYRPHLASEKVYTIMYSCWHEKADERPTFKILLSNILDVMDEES

[2] = molecular target: T1, BTK wildtype protein; test: Kinact/KI determination for BTK protein inhibitors (Kobs)
Method: Test compounds were prepared as 10 mM stock solutions in DMSO (Fisher cat #BP231-100). Human recombinant BTK wildtype protein 393-659 or BTK C481S protein 393-659 was produced in house or purchased from Saromics Biostructures AB (Lund, Sweden). BTK protein was diluted to 1 μM in buffer (20 mM Hepes, pH 7.5, 150 mM NaCl, 1 mM MgCl2, 1 mM DTT). For testing BTK modification, compounds were diluted to 50× final test concentration in DMSO in 96-well storage plates. 1 μL of the diluted 50× compounds were added to appropriate wells in the PCR plate (Fisher cat #AB-0800). Increasing concentrations of compounds were added to separate wells, resulting in final assay compound concentrations of 3 μM, 10 μM, 30 μM and 100 μM. 49 μL of the stock protein solution was added to each well of the 96-well PCR plate. Reactions were mixed carefully. The plate was sealed well with aluminum plate seal and stored in a drawer at room temperature. After different incubation times, the reactions were quenched by adding 5 μL of 2% formic acid (Fisher cat #A117-50) in MilliQ H2O to each well followed by mixing with a pipette. The plate was then resealed with aluminum seal and stored until mass spectrometry analysis.
The extent of covalent modification of BTK proteins was determined by liquid chromatography electrospray mass spectrometry analysis of the intact proteins using a Thermo Q-Exactive Plus mass spectrometer. 20 μL of sample was injected onto a bioZen 3.6 μm Intact C4 column (Phenomenex cat #00B-4767-AN) placed in a column oven set to 40° C. and separated using a LC gradient from 20% to 60% solvent B. Solvent A was 0.1% formic acid and solvent B was 0.1% formic acid in acetonitrile. HESI source settings were set to 40, 5 and 1 for the sheath, auxiliary and sweep gas flow, respectively. The spray voltage was 4 kV, and the capillary temperature was 320° C. S-lens RF level was 50 and auxiliary gas heater temperature was set to 200° C. The mass spectrometry was acquired using a scan range from 650 to 1750 m/z using positive polarity at a mass resolution of 70,000, AGC target of 1e6 ions and maximum injection time of 250 ms. The recorded protein mass spectrum was deconvoluted from the raw data file using Protein Deconvolution v4.0 (Thermo). The protein mass, adduct masses and their corresponding peak intensities were exported to Excel (Microsoft). The peak intensities for the unmodified and modified protein were used to calculate the percent covalent modification of the BTK protein based on the following equation: % BTK protein modification=((BTK−compound)/(BTK)+(BTK−Compound))*100.
The Kinact/KI is a rate constant describing the efficiency of covalent bond formation resulting from the potency (KI) of the first reversible binding event and the maximum potential rate (Kinact) of inactivation. The percent […] protein modification was plotted as a function of time using Prism version 9.4.1 (GraphPad), and the observed rate of modification (Kobs), a first-order rate constant with units of inverse time, was estimated using nonlinear regression at each compound concentration. […] If Kobs is increasing with compound concentration, KI is higher than 3 μM. Kinact/KI can be estimated by plotting Kobs values against each compound concentration used in separate reactions. The Kobs values are fitted to determine Kinact and KI using the following equation, Kobs=(Kinact×[compound conc])/(KI+[compound conc]).
Target sequence in this assay (Q06187 393-659): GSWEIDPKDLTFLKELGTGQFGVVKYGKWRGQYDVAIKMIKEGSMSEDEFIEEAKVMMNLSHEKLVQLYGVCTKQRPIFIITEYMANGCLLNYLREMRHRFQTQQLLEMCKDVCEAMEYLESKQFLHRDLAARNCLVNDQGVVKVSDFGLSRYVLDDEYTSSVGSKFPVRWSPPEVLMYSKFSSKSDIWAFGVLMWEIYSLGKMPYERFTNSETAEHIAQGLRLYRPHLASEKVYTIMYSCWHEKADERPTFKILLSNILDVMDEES

[3] = molecular target: BTK C481S protein (Homo sapiens (Human), UniProt Q06187, C481S); test: BTK C481S HTRF displacement assay; settings: 1-hour incubation
In short: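 Tracer displacement read by HTRF after 1 hour at room temperature: GST-BTK C481S 2-659, 50 nM tracer 239 (Kd 54 nM), anti-GST antibody, compound in six four-fold doses from 5 μM. Percent inhibition versus DMSO fitted (bottom 0, top 100) for IC50, converted to KI via Cheng-Prusoff.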

BTK C481S protein, sequence (Q06187 2-659 C481S): as the sequence (Q06187 2-659) above, with C480S counted along it

| SMILES | IC50 [1] [nM] | IC50 [3] [nM] | BTK (wt) Kobs [2] |
| --- | --- | --- | --- |
| COc1ccc(F)cc1C(=O)NCc1ccc(-c2nn(C(C)C3CCCCN3C(=O)n3cncn3)c(N)c2C(N)=O)cc1 (stereo not shown) [Compound 249, 1-(1-(1-(1H-1,2,4-triazole-1-carbonyl)piperidin-2-yl)ethyl)-5-amino-3-(4-((5-fluoro-2-methoxybenzamido)methyl)phenyl)-1H-pyrazole-4-carboxamide] | ≤ 1000 | ≤ 1000 | 248, 249, 250, 253, 254, 256, 259, 260, 261, 264, 265, M^−1 · s^−1 |
| COc1ccc(F)cc1C(=O)NCc1ccc(-c2nn(C[C@H](C(C)C)N(C)C(=O)n3cncn3)c3ncnc(N)c23)cc1 [Compound 259, (S)-N-(1-(4-amino-3-(4-((5-fluoro-2-methoxybenzamido)methyl)phenyl)-1H-pyrazolo[3,4-d]pyrimidin-1-yl)-3-methylbutan-2-yl)-N-methyl-1H-1,2,4-triazole-1-carboxamide] | > 1000 | > 1000 | 248, 249, 250, 253, 254, 256, 259, 260, 261, 264, 265, M^−1 · s^−1 |
| NC(=O)c1c(-c2ccc(Oc3ccccc3)cc2)nn(C2CCCC3C2CCN3C(=O)n2cncn2)c1N (stereo not shown) [Compound 253, 1-(1-(1H-1,2,4-triazole-1-carbonyl)octahydro-1H-indol-4-yl)-5-amino-3-(4-phenoxyphenyl)-1H-pyrazole-4-carboxamide] | – | – | 248, 249, 250, 253, 254, 256, 259, 260, 261, 264, 265, M^−1 · s^−1 |
| COc1ccc(F)cc1C(=O)NCc1ccc(-c2nn(C(C)C(C)CN(C)C(=O)n3cncn3)c3ncnc(N)c23)cc1 (stereo not shown) [Compound 248, N-(3-(4-amino-3-(4-((5-fluoro-2-methoxybenzamido)methyl)phenyl)-1H-pyrazolo[3,4-d]pyrimidin-1-yl)-2-methylbutyl)-N-methyl-1H-1,2,4-triazole-1-carboxamide] | ≤ 1000 | – | 248, 249, 250, 253, 254, 256, 259, 260, 261, 264, 265, M^−1 · s^−1 |
| COc1ccc(F)cc1C(=O)NCc1ccc(-c2nn(C3CCC(N(C)C(=O)n4cncn4)C3)c(N)c2C(N)=O)cc1 (stereo not shown) [Compound 150, N-(3-(5-amino-4-carbamoyl-3-(4-((5-fluoro-2-methoxybenzamido)methyl)phenyl)-1H-pyrazol-1-yl)cyclopentyl)-N-methyl-1H-1,2,4-triazole-1-carboxamide] | – | ≤ 1000 | 132, 134, 136, 137, 138, 140, 150, 152, 153, 154, 155, M^−1 · s^−1 |
| Cc1[nH]c2c(C(N)=O)cc(F)c(N3CCC4(CCN4C(=O)n4cncn4)C3)c2c1C (stereo not shown) [Compound 105, 4-(1-(1H-1,2,4-triazole-1-carbonyl)-1,6-diazaspiro[3.4]octan-6-yl)-5-fluoro-2,3-dimethyl-1H-indole-7-carboxamide] | ≤ 1000 | ≤ 1000 | – |
| COc1ccc(F)cc1C(=O)NCc1ccc(-c2nn(-c3cccc(CN(C)C(=O)n4cncn4)c3)c3ncnc(N)c23)cc1 [Compound 191, N-(3-(4-amino-3-(4-((5-fluoro-2-methoxybenzamido)methyl)phenyl)-1H-pyrazolo[3,4-d]pyrimidin-1-yl)benzyl)-N-methyl-1H-1,2,4-triazole-1-carboxamide] | ≤ 1000 | ≤ 1000 | – |
| COc1nn(C)cc1Nc1nc(N2CCCC3(CCN3C(=O)n3cncn3)C2)nc2c1ncn2C (stereo not shown) [Compound 102, (6-(6-((3-methoxy-1-methyl-1H-pyrazol-4-yl)amino)-9-methyl-9H-purin-2-yl)-1,6-diazaspiro[3.5]nonan-1-yl) (1H-1,2,4-triazol-1-yl)methanone] | > 1000 | > 1000 | – |
| COc1ccc(F)cc1C(=O)NCc1ccc(-c2nn(CC(N(C)C(=O)n3cncn3)C(F)(F)F)c(N)c2C(N)=O)cc1 (stereo not shown) [Compound 186, N-(3-(5-amino-4-carbamoyl-3-(4-((5-fluoro-2-methoxybenzamido)methyl)phenyl)-1H-pyrazol-1-yl)-1,1,1-trifluoropropan-2-yl)-N-methyl-1H-1,2,4-triazole-1-carboxamide] | ≤ 1000 | ≤ 1000 | – |
| COc1ccc(F)cc1C(=O)NCc1ccc(-c2nn(C[C@@H]3CCCCN3C(=O)n3cncn3)c3[nH]c(=O)[nH]c(=O)c23)cc1 [Compound 164] | ≤ 1000 | ≤ 1000 | – |

Second part, led by results:

| IC50 [1] [nM] | IC50 [3] [nM] | SMILES | BTK (wt) Kobs [2] |
| --- | --- | --- | --- |
| ≤ 1000 | ≤ 1000 | CN(C(=O)n1cncn1)C1CCCC(C2CCNc3c(C(N)=O)c(-c4ccc(Oc5ccccc5)cc4)nn32)C1 (stereo not shown) [Compound 134, 7-(3-(N-methyl-1H-1,2,4-triazole-1-carboxamido)cyclohexyl)-2-(4-phenoxyphenyl)-4,5,6,7-tetrahydropyrazolo[1,5-a]pyrimidine-3-carboxamide] | 132, 134, 136, 137, 138, 140, 150, 152, 153, 154, 155, M^−1 · s^−1 |
| > 1000 | ≤ 1000 | NC(=O)c1c(-c2ccc(Oc3ccccc3)cc2)nn2c1NCCC2C1CCN1C(=O)n1cncn1 (stereo not shown) [Compound 137, 7-(1-(1H-1,2,4-triazole-1-carbonyl)azetidin-2-yl)-2-(4-phenoxyphenyl)-4,5,6,7-tetrahydropyrazolo[1,5-a] pyrimidine-3-carboxamide] | 132, 134, 136, 137, 138, 140, 150, 152, 153, 154, 155, M^−1 · s^−1 |
| – | ≤ 1000 | COc1ccc(F)cc1C(=O)NCc1ccc(-c2nn(C3CCCC4(CCN4C(=O)n4cncn4)C3)c3ncnc(N)c23)cc1 (stereo not shown) [Compound 152, N-(4-(1-(1-(1H-1,2,4-triazole-1-carbonyl)-1-azaspiro[3.5]nonan-6-yl)-4-amino-1H-pyrazolo[3,4-d]pyrimidin-3-yl)benzyl)-5-fluoro-2-methoxybenzamide] | 132, 134, 136, 137, 138, 140, 150, 152, 153, 154, 155, M^−1 · s^−1 |
| ≤ 1000 | > 1000 | COc1ccc(F)cc1C(=O)NCc1ccc(-c2nn(C3(CCN(C)C(=O)n4cncn4)CC3)c3ncnc(N)c23)cc1 [Compound 225, N-(2-(1-(4-amino-3-(4-((5-fluoro-2-methoxybenzamido)methyl)phenyl)-1H-pyrazolo[3,4-d]pyrimidin-1-yl)cyclopropyl)ethyl)-N-methyl-1H-1,2,4-triazole-1-carboxamide] | – |
| ≤ 1000 | ≤ 1000 | CC1(C)CC(n2nc(-c3ccc(Oc4ccccc4)cc3)c3c(N)ncnc32)CCN1C(=O)n1cncn1 (stereo not shown) [Compound 148, (4-(4-amino-3-(4-phenoxyphenyl)-1H-pyrazolo[3,4-d]pyrimidin-1-yl)-2,2-dimethylpiperidin-1-yl)(1H-1,2,4-triazol-1-yl)methanone] | – |
| ≤ 1000 | ≤ 1000 | CN(CCC1CCNc2c(C(N)=O)c(-c3ccc(Oc4ccccc4)cc3)nn21)C(=O)n1cncn1 (stereo not shown) [Compound 244, 7-(2-(N-methyl-1H-1,2,4-triazole-1-carboxamido)ethyl)-2-(4-phenoxyphenyl)-4,5,6,7-tetrahydropyrazolo[1,5-a] pyrimidine-3-carboxamide] | – |
| ≤ 1000 | > 1000 | COc1ccc(F)cc1C(=O)NCc1ccc(-c2nn(Cc3ccccc3N(C)C(=O)n3cncn3)c3ncnc(N)c23)cc1 [Compound 141, N-(2-((4-amino-3-(4-((5-fluoro-2-methoxybenzamido)methyl)phenyl)-1H-pyrazolo[3,4-d]pyrimidin-1-yl)methyl)phenyl)-N-methyl-1H-1,2,4-triazole-1-carboxamide] | – |
